# Measured values taken from patent publication US20080090916A1, “Compounds for Treating Urinary Incontinence” (priority 2005, published 2008).
# Entries after “also recorded” stand apart in the source; their conditions may differ.
# Tests used:
# [1] = In vitro percutaneous absorption (skin permeation) of saturated solutions, modified Franz cell; type: in vitro ADME, human; conditions: dissolved in IPM/Pharmasolve 80:20 (v/v), compared with control solution
# Method: For all experiments (one run with 9 cells) skin from one patient was used. The skin was excised full skin from surgery of the thigh, cleaned from adhering fat tissue, stored at −18° C. prior to use but not for longer than 6 months.
# In vitro skin permeation investigation was performed as described in this Example.
# The flux was calculated for every formulation by means of linear regression (performance with Excel software; regression coefficient to be >0.98) from the mean cumulative permeated amounts in μg/cm^2 during steady state against the time in hours. For test solution #1 the linear regression was calculated from 12-48 hours (not until 72 hours, because after 48 hours the permeation was decreasing). […] The lag-time (which was the time when steady state of permeation was starting after application) was taken from the intersection of the regression line with the time axis.
# The transdermal delivery rate was assumed to be the same in vivo as it is in vitro (this must, of course, be proven by further kinetic studies). The patch size was set to 20 cm^2, which is middle sized (small patches are 5 cm^2; big patches are 60 cm^2) and the delivery rate was calculated daily (1 day=24 hours).
# (flux rate steady state [μg/cm^2/h]×20 [cm^2]×24[h])/1000=delivery rate [mg/20 cm^2/24 h].
# [2] = system: vesicourethral junction sphincter muscle strips; assay: Enzyme assay: regeneration of 1R,2S-methoxamine from compound (Ia) by gamma glutamyl transferase, reaction product tested on muscle strips; type: cell-based, pig; conditions: for response of muscle strips: 0.3 mM
# Method: Regeneration of 1R,2S-methoxamine from the Compound of Formula (Ia)
# Into a clean glass vial (1 ml volume) the following reaction mixtures were pipetted as follows:
# 200 μl compound of formula (Ia), 10 mg/ml in Tris buffer (mol. wt. 376, therefore=2 mg compound of formula (Ia)=5.3 μMoles), 100 μl solution E
# Reaction product of groups 1, 2 and 3 were only tested for biological activity after 30 minutes of incubation period at 37° C. while that of group 4 were also tested after, 10, 30 and 60 minutes of incubation period. A 5 h group of which reaction mixture indicated in group four were diluted by two fold after 30 min incubation were also tested for biological activity.
# Gamma glutamyl transferase, 2-1-18 porcine kidney was purchased from Calzyme Labs San Luis Obispo, Calif. 93401 USA, glyclglycine was obtained from Acros Organics, New Jersey, USA while L-glutamic acid 5-(4-nitroanilide) was purchased from Fluka Chemie Switzerland.
# The reaction mixture was incubated in HOT BOX oven, size one incubator made by Gallenpark, England, while the absorbance was measured (@λmax 405 nm), using Anthos 2020 UV/VIS spectrophotometer.
# Representative traces of pig vesicourethral junction sphincter muscle response to various enzyme reaction products are shown in FIG. 3 and representative traces of pig proximal sphincter muscle response to various enzyme reaction products are shown in FIG. 4. The enzyme reaction products tested are as follows: • FIG. 3a-50 mM Tris HCl buffer; • FIG. 3b-50 mM Tris HCl buffer, gamma glutamyl transferase. • FIG. 3c-50 mM Tris HCl buffer, MgCl2.6H2O, glycylglycine, compound of formula (Ia); • FIG. 4a-50 mM Tris HCl buffer, MgCl2.6H2O, glycylglycine, gamma glutamyl transferase, compound of formula (Ia); • FIG. 4b-0.3 mM 1R,2S-methoxamine.
# [3] = system: pig vesicourethral junction sphincter muscle; assay: Functional assay: dose response on isolated pig vesicourethral junction sphincter muscle strips; type: cell-based
# From the text: Samples of female white landrace pig bladder and urethra were obtained from freshly slaughtered pigs at the local abattoir. The pigs were killed by exsanguination after initial stunning by electric shock. The anus, rectum, bladder and urethra were then excised en bloc during evisceration and immediately transferred into pre oxygenated Krebs' solution (1 mmol/l: NaCl 120, KCl 5.9 NaHCO3 15.4, CaCl2 2.5, MgCl2 1.2, glucose 11.5) and transported to the laboratory, where they were stored in the refrigerator (at 4° C.) until ready to be processed.
# The location of the vesicourethral junction sphincter was then identified. The bladders were inflated via a transurethral catheter with 200 ml. fluid. The fluid was then gently squeeze towards the outlet, until a sharp narrowing of the bladder base becomes apparent (Dass, 1997; Dass et al., 2001). Tissue sections from this region were then denuded of urothelium, and dissected transversely into a number of muscle strips.
# Muscle strips measuring about 5-6 mm by 2-3 mm with an average weight of 7 mg were dissected, fine (5/0) silk threads were tied at each end of the strips and each strip mounted vertically in a 0.2 ml capacity, perspex organ bath between two recessed platinum electrodes through which electrical field stimulation (EFS) could be delivered. Strips were constantly superfused with Krebs' solution (37° C.) at a rate of 1.5 ml 1 min. The Krebs' solutions were gassed with 97% oxygen 3% carbon dioxide. Drugs were delivered by substituting drug containing solutions of the desired concentration for Krebs' solutions.
# The apparatus comprised of six organ baths in parallel allowing the study of six strips simultaneously as described by Brading and Sibley (1983). Each channel was calibrated with a 1 g weight attached to the transducer before each experiment, and tissues were tensioned to 1 g after mounting. Isomeric tension generated by the strips was measured using isomeric force displacement transducers, Pioden Dynamometer UFI transducers (Pioden Controls Ltd, Canterbury, Kent) or AD Instruments MLT050/D force transducers, amplified (Harvard Transducer/Amplifier, Harvard Apparatus Ltd, Edenbridge, Kent) and analyzed using MacLab Data Acquisition system (AD Instruments, Sydney, Australia) or AD Instruments OCTAL Bridge Amplifier connected to Power Lab/8SP (AD Instruments, Sydney, Australia) and Chart v3.6 software (Macintosh) or Chart v5 (PC).
# Dose response curves for the various compounds were constructed by testing one drug on a pair of strip in each experiment. The preparations were subjected to a sequence of successive 10 s […] applications of increasing doses of drugs with intervening washout periods.
# 1R,2S-methoxamine hydrochloride, the compound of formula (Ia) and the compound of formula (III) were made available by Norgine International Research, Middlesex.
# Responses were reported as either grams of tension or % maximum force and given as mean values ±SEM. EC50 values were used as a measure of potency. The EC50 values were measured from the graph of dose response curve using the kaleidograph graphical software applications. Results were assessed using statistical analysis software, StatView 5.0 (SAS Institute Inc.) using ANOVA followed by Fisher's test. Significant difference between data was assumed with p<0.05.
structure (smiles),measurement,setting,value
"COc1ccc(OC)c([C@@H](O)[C@H](C)NC(=O)CC[C@H](N)C(=O)O)c1 [compound of formula (Ia), (S)-2-Amino-4-[(1S,2R)-2-(2,5-dimethoxyphenyl)-2-hydroxy-1-methyl-ethylcarbamoyl]butyric acid]",enhancement factor for percutaneous absorption,[1],13.84
same,response of muscle strips,[2]; prepared in saline,1.15 g
same,response of muscle strips,[2]; prepared in tris buffer,1.22 g
same,reduction of bladder activity of the reaction mixture,[2]; 2-fold dilution post 30 min incubation with the enzyme,38%
same,contractile response,"[2]; Mg^2+-glycylglycine-compound-enzyme mixture, 30 min incubation",1.62 g
same,contractile response of pig bladder neck muscle,"[2]; administered with gamma glutamyl transferase and glycylglycine, FIG. 4a",pronounced well defined contractile response
same,contractile response,"[2]; buffer-Mg^2+-glycylglycine-compound, no enzyme, 30 min incubation",0.12 g
same,contractile response,"[2]; reaction mixture with enzyme, 10 min incubation",1.52 g
same,contractile response,"[2]; reaction mixture with enzyme, 60 min incubation",1.10 g
same,EC50,"[3]; Sus scrofa, contraction, from dose response curve, read-out: relative potencies (EC50)",4.64 mM
same,contractile response of muscle strip (representative traces),"[3]; compound alone, FIG. 1",no significant contraction; also recorded: little or no activity
same,response over the dose range tested,[3]; dose range 10^−6M-10^−2M,failed to evoke any appreciable response
